In patent publication US12552844B2, “De-epitoped alpha gliadin and use of same for the management of celiac disease and gluten sensitivity” (Ukko Inc., priority 2019, dated 2026):
Where no end group is shown, it is not given here.

Molecular target: MHC II molecules
Experiment: MHC/peptide competition binding assay with a radiolabelled known MHC binding peptide
Conditions: purified MHC, incubation 2-4 days, non-binding defined as IC50≥30,000 nM
Method: Measurement of MHC/peptide interactions: Computational prediction algorithm was used to generate a list of putative non-binding peptides. Those peptides were synthesized and binding to MHC was measured as described in Sidney J et al, 2013.
Briefly, competition assays using different concentrations of WT and modified gluten peptides are conducted by diluting the peptides in NP40 buffer, and incubation for 2-4 days with purified MHC and a radiolabelled known MHC binding peptide. MHC II molecules are purified by affinity chromatography, and peptides are radiolabeled using the chloramine T method. After an incubation period, the bound and unbound radiolabeled species are separated, and their relative amounts are determined by either size-exclusion gel-filtration chromatography or monoclonal antibody capture of MHC. The percent of bound radioactivity is then determined. For each modified peptide, IC50 values of WT and modified peptide are calculated. The validated gluten peptide epitopes are analyzed for MHC binding as a positive control. Some of the peptides are tested also in a deamidated form.

Sequence | IC50 [µM]
HLPGPQPHLSYPQPH [Variant P2e] | > 40
LQLQPFPQPHLFPPQ [Variant P1c] | 38.6
LQLQPFPQPPLPYGQ [Variant P1e] | 30.7
QLPYSQPHRPYHQPQ [Variant P2d] | > 40

Next, values leading:

IC50 [µM] | Sequence
> 40 | FPPQPHPFPPQPQPF [Variant P3h]
> 40 | PGGQPHLPGGQPQPF [Variant P3g]
> 40 | PQPFPPLPYPQPQSF [Variant P3i]
> 40 | PYSQPHRPYHQPQPF [Variant P3e]
> 40 | SLPMPQPSLRYRQPS [Variant P2i]
> 40 | TLPSPQPTLGYGQPT [Variant P2h]
